Experimental data as given in patent US20230265116A1, “DEGRADATION OF (EGFR) BY CONJUGATION OF EGFR INHIBITORS WITH E3 LIGASE LIGAND AND METHODS OF USE” (BEIGENE, LTD., priority 2020, published 2023).

Key:
Type in all cases: cell-based
[1] = tested on: EGFR Del19/T790M/C797S (BaF3-DTC cells); test: EGFR degradation HTRF assay, BaF3-DTC cells; conditions: 16h treatment; for DTC Dmax (%): maximum percentage of degradation; for DC50: read-out: DTC DC50
Outline: (§1)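 BaF3 (WT, Del19/T790M/C797S) and HCC827 cells exposed 16 h at 37 °C, 5% CO2 to compounds in 0.2% DMSO medium, 8 doses from 10 uM top, 5-fold steps. Lysates read by HTRF (665/620 nm); degradation % vs DMSO control, DC50 from four-parameter fit, Dmax as maximal degradation.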

[2] = biological target: T1, EGFR WT (BaF3 WT cells) (Homo sapiens, UniProt P00533); test: EGFR degradation HTRF assay, BaF3 WT cells; conditions: BaF3 WT, 16h treatment; for Dmax: maximum percentage of degradation, read-out: WT Dmax (%)
T1 construct: expressed in transfected cells; host or cells: BaF3
Procedure: BaF3 WT(wild type), BaF3-LTC(L858R/T790M/C797S) and BaF3-DTC(Del19/T790M/C797S) cells are treated with compounds diluted in 0.2% DMSO cell culture medium and incubate for 16h, 37° C., 5% CO2, H1975-#36, H1975-#28, H1975-#23 and HCC827 cells are treated with compounds diluted in 0.2% DMSO cell culture medium on day 2, incubate for 16h, 37° C., 5% CO2.the final concentriation of compounds in all assay is start with 10 uM, 5-fold dilution, total 8 doses were included.
After 16h treatment, add HTRF lysis buffer to each well; seal the plate and incubate 1 hour at room temperature on a plate shaker; Once the cells are lysed, 16 μL of cell lysate are transferred to a PE 384-well HTRF detection plate; 4 μL of pre-mixed HTRF antibodies are added to each well; Cover the plate with a plate sealer, spin 1000 rpm for 1 min, Incubate overnight at room temperature; Read on BMG PheraStar with HTRF protocol (337 nm-665 nm-620 nm).
The inhibition (degradation) percentage of the compound was calculated by the following equation: Inhibition percentage of Compound=100-100×(Signal-low control)/(High control-low control), wherein signal=each test compound group
High control=Cell group with added DMSO and without compound, indicating microplate readings without EGFR degradation;
Dmax is the maximum percentage of inhibition (degradation).
The IC50 (DC50) value of a compound can be obtained by fitting the following equation
Y=Bottom+(TOP−Bottom)/(1+((IC50/X)^hillslope))
Wherein, X and Y are known values, and IC50, Hillslope, Top and Bottom are the parameters obtained by fitting with software. Y is the inhibition percentage (calculated from the equation), X is the concentration of the compound; IC50 is the concentration of the compound when the 50% inhibition is reached. The smaller the IC50 value is, the stronger the inhibitory ability of the compound is. Vice versa, the higher the IC50 value is, the weaker the inhibitory ability of the compound is; Hillslope represents the slope of the fitted curve, generally around 1*; Bottom represents the minimum value of the curve obtained by data fitting, which is generally 0%±20%; Top represents the maximum value of the curve obtained by data fitting, which is generally 100%±20%. The experimental data were fitted by calculating and analyzing with Dotmatics data analysis software.

[3] = biological target: T2, EGFR (HCC827 cells) (Homo sapiens, UniProt P00533, DEL746-750); test: EGFR degradation HTRF assay, HCC827 cells; conditions: HCC827, 16h treatment; for Dmax: maximum percentage of degradation
T2 construct: endogenous in cells; host or cells: HCC827
Outline: as §1

[4] = biological target: T3, EGFR L858R/T790M (H1975-clone #36, homozygous) (Homo sapiens, UniProt P00533, L858R/T790M); test: EGFR degradation HTRF assay, H1975-clone #36 cells; conditions: H1975 #36, 16h treatment; for Dmax: NCI-H1975, maximum percentage of degradation
T3 construct: designed to specifically target WT EGFR but preserve the L858R/T790M copy; host or cells: H1975-clone #36
Outline: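 Eight-point, 5-fold series starting at 10 uM (0.2% DMSO) applied for 16 h, 37 °C, to a WT-EGFR-knockout H1975 clone carrying only L858R/T790M. Lysates read by HTRF overnight. Degradation percentage relative to DMSO control fitted for DC50, with Dmax as maximum degradation.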

[5] = biological target: T4, EGFR L858R/T790M/C797S (BaF3-LTC cells) (Homo sapiens, UniProt P00533, C797S/L858R/T790M); test: EGFR degradation HTRF assay, BaF3-LTC cells; conditions: BaF3-LTC, 16h treatment; for Dmax: maximum percentage of degradation, read-out: LTC Dmax (%); for DC50: read-out: LTC DC50
T4 construct: expressed in transfected cells; host or cells: BaF3
Outline: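 EGFR remaining after a 16 h, 37 °C exposure (8 doses, 5-fold steps from 10 uM final, 0.2% DMSO) was quantified by HTRF antibodies in cell lysate. Percent inhibition relative to DMSO control was fitted by four-parameter logistic to give DC50; Dmax denotes maximal degradation.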

T4 sequence (P00533 25-1210 T790M/C797S/L858R): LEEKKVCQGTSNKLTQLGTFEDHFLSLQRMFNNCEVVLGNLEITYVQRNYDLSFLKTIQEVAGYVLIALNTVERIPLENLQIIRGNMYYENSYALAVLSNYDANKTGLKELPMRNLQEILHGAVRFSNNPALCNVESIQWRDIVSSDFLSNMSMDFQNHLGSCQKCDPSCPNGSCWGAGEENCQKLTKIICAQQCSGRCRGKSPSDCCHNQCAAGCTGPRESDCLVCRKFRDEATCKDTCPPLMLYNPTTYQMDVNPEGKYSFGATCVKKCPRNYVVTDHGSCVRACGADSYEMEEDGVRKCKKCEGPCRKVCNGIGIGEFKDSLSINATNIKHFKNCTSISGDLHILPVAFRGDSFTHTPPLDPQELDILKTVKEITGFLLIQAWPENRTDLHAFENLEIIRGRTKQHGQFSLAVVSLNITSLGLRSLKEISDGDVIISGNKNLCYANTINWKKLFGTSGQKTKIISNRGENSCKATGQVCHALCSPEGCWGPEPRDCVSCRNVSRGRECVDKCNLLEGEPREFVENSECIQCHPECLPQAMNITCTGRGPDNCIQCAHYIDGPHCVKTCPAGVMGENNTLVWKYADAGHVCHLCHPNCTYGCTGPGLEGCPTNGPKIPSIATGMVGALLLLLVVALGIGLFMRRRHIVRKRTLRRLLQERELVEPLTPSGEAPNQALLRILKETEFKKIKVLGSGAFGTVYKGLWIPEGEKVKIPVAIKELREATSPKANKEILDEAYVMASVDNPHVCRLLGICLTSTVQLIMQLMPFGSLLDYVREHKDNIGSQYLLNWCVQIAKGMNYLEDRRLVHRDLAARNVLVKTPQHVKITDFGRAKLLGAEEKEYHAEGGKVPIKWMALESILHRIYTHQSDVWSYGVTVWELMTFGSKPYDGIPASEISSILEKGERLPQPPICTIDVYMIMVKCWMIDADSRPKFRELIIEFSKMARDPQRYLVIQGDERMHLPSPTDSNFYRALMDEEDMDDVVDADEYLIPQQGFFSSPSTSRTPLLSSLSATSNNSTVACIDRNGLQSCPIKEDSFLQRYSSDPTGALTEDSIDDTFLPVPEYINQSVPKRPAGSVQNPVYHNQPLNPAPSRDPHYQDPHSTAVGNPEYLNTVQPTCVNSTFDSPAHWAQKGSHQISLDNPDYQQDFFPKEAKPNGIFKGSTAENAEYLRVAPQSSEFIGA
T2 sequence (P00533 with tags, fused parts or gaps DEL746-750): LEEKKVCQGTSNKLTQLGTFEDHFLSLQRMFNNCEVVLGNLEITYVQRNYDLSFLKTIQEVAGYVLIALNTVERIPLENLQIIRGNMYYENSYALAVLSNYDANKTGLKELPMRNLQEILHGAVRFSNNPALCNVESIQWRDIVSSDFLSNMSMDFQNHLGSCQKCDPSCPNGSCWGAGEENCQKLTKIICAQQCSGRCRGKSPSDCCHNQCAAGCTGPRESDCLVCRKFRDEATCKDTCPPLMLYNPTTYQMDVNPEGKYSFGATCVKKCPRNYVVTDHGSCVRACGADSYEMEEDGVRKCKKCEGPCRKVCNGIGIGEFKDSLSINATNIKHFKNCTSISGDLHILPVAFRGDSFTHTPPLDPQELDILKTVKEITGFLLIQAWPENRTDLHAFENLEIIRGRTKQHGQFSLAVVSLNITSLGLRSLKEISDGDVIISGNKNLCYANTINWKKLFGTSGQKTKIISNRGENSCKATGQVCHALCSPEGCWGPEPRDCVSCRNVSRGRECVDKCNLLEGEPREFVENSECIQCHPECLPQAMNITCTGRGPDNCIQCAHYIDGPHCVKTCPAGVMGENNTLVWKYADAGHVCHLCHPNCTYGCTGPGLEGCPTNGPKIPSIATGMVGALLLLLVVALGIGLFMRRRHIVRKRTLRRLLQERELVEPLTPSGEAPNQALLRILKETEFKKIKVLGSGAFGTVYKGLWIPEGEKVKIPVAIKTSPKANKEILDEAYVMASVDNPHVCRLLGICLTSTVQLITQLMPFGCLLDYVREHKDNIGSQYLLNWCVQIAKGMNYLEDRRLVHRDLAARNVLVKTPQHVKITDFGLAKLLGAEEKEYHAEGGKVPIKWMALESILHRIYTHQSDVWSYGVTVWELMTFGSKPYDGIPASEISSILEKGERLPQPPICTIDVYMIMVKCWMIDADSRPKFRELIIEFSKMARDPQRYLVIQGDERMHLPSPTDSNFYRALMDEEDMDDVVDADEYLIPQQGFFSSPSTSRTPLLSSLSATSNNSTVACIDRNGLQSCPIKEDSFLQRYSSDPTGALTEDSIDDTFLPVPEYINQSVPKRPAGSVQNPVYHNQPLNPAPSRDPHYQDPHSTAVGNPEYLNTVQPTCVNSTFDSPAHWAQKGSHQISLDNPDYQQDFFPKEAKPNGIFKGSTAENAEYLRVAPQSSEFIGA
T3 sequence (P00533 25-1210 T790M/L858R): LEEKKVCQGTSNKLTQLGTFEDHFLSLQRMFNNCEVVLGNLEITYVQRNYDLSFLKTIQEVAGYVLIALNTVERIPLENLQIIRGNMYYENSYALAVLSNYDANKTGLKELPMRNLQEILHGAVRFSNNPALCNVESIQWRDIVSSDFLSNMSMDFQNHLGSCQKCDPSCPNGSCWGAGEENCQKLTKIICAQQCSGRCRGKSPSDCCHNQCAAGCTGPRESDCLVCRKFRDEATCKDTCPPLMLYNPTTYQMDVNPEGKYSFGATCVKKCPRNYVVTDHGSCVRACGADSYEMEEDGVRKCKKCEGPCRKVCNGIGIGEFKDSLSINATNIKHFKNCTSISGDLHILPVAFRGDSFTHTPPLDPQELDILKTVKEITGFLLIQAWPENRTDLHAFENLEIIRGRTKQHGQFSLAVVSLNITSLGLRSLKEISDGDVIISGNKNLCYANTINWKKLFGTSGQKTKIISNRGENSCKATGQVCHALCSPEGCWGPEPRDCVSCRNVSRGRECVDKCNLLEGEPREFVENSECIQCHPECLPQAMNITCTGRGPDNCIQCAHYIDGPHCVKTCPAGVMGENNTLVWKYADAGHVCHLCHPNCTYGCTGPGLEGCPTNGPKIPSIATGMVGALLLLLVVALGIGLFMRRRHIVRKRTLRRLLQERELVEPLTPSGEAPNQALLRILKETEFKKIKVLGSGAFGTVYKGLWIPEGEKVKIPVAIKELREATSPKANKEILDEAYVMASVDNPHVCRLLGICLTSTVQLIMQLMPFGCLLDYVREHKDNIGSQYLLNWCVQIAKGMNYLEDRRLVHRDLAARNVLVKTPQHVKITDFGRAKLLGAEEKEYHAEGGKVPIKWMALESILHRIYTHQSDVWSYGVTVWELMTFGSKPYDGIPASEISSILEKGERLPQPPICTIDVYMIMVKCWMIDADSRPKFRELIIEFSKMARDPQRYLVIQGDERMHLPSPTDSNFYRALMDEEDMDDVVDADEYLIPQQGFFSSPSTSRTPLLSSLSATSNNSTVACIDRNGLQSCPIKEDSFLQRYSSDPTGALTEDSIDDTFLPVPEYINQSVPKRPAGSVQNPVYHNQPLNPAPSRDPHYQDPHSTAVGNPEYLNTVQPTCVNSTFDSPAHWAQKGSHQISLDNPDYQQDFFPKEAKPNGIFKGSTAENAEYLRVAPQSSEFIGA
T1 sequence (P00533 25-1210): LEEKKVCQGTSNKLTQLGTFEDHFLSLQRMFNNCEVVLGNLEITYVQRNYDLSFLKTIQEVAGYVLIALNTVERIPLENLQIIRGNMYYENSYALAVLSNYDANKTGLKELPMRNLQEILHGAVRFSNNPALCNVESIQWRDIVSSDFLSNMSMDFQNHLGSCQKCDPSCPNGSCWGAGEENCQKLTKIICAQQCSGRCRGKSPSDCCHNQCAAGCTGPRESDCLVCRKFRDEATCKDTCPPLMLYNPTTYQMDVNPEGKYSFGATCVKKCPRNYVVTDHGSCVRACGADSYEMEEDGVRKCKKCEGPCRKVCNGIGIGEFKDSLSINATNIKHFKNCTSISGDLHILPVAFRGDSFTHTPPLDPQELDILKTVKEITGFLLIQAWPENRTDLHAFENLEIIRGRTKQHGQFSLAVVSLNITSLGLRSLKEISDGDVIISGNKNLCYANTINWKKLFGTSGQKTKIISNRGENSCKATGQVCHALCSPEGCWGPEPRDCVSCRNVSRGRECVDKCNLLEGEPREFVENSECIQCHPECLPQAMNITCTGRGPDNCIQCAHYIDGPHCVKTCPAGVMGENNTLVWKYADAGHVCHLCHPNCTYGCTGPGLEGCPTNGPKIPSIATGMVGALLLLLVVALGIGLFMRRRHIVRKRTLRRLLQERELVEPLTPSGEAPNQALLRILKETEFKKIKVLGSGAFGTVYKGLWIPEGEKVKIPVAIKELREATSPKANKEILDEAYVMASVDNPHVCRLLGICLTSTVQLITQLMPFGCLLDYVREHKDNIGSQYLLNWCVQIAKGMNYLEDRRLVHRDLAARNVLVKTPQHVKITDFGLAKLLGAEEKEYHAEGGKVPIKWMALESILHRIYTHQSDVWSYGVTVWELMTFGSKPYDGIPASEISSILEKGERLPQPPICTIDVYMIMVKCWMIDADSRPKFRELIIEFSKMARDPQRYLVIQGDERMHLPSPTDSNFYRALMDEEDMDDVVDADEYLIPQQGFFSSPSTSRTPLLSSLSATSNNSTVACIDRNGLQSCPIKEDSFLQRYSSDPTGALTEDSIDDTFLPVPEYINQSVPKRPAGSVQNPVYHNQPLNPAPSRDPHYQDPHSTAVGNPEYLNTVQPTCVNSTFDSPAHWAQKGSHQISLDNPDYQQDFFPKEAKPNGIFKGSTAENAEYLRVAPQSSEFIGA

CCc1cc(Nc2ncc(Br)c(Nc3ccc4nccnc4c3P(C)(C)=O)n2)c(OC)cc1N1CCC(N2CCN(CCC3CCN(c4ccc(C5CCC(=O)NC5=O)cc4)CC3)CC2)CC1 (stereo not drawn) [Example 23, 3-(4-(4-(2-(4-(1-(4-((5-bromo-4-((5-(dimethylphosphoryl)quinoxalin-6-yl)amino)pyrimidin-2-yl)amino)-2-ethyl-5-methoxyphenyl)piperidin-4-yl)piperazin-1-yl)ethyl)piperidin-1-yl)phenyl)piperidine-2,6-dione]
DTC Dmax (%) [1]: 95.73% | DC50 [1]: 13.3 nM | DC50 [2]: > 10000 nM | Dmax [2]: 14.6% | DC50 [3]: 2.05 nM | Dmax [3]: 93.4% | DC50 [4]: 14.1 nM | Dmax [4]: 65.5% | Dmax [5]: 89% | DC50 [5]: 25.6 nM

CCc1cc(Nc2ncc(Br)c(Nc3ccc4nccnc4c3P(C)(C)=O)n2)c(OC)cc1N1CCC(N2CCN(C(=O)CCN3CCN(c4ccc5c(c4)C(=O)N(C4CCC(=O)NC4=O)C5=O)CC3)CC2)CC1 (stereo not drawn) [Example 61, 5-(4-(3-(4-(1-(4-((5-bromo-4-((5-(dimethylphosphoryl)quinoxalin-6-yl)amino)pyrimidin-2-yl)amino)-2-ethyl-5-methoxyphenyl)piperidin-4-yl)piperazin-1-yl)-3-oxopropyl)piperazin-1-yl)-2-(2,6-dioxopiperidin-3-yl)isoindoline-1,3-dione]
DTC Dmax (%) [1]: 96.02% | DC50 [1]: 6.05 nM | DC50 [2]: > 10000 nM | Dmax [2]: 22.2% | DC50 [3]: 2.84 nM | Dmax [3]: 90% | DC50 [4]: 9.34 nM | Dmax [4]: 77.2% | Dmax [5]: 90.4% | DC50 [5]: 20.1 nM

COc1cc(N2CCC(N3CCN(C(=O)CCN4CCC(c5ccc(C6CCC(=O)NC6=O)cc5)CC4)CC3)CC2)ccc1Nc1ncc(Cl)c(Nc2ccccc2N(C)S(C)(=O)=O)n1 (stereo not drawn) [Example 123, N-(2-((5-chloro-2-((4-(4-(4-(3-(4-(4-(2,6-dioxopiperidin-3-yl)phenyl)piperidin-1-yl)propanoyl)piperazin-1-yl)piperidin-1-yl)-2-methoxyphenyl)amino)pyrimidin-4-yl)amino)phenyl)-N-methylmethanesulfonamide]
DTC Dmax (%) [1]: 83.94% | DC50 [1]: 273 nM | DC50 [2]: > 10000 nM | Dmax [2]: 21.6% | DC50 [3]: 15.9 nM | Dmax [3]: 88.8% | DC50 [4]: 12.4 nM | Dmax [4]: 79.7% | Dmax [5]: 21.2% | DC50 [5]: > 10000 nM

CCc1cc(Nc2ncc(Br)c(Nc3ccc4nccnc4c3P(C)(C)=O)n2)c(OC)cc1N1CCC(N2CCN(CCC3CCN(c4ccc(C5CCC(=O)NC5=O)c(C#N)c4)CC3)CC2)CC1 (stereo not drawn) [Example 34, 5-(4-(2-(4-(1-(4-((5-bromo-4-((5-(dimethylphosphoryl)quinoxalin-6-yl)amino)pyrimidin-2-yl)amino)-2-ethyl-5-methoxyphenyl)piperidin-4-yl)piperazin-1-yl)ethyl)piperidin-1-yl)-2-(2,6-dioxopiperidin-3-yl)benzonitrile]
DTC Dmax (%) [1]: 82.04% | DC50 [1]: 15.1 nM | DC50 [2]: > 10000 nM | Dmax [2]: 26.2% | DC50 [3]: 6.2 nM | Dmax [3]: 80.8% | DC50 [4]: 8.6 nM | Dmax [4]: 71% | Dmax [5]: 81.2% | DC50 [5]: 21.6 nM

COc1cc(N2CCC(N3CCN(C(=O)CCCCN4CCN(c5ccc6c(c5)C(=O)N(C5CCC(=O)NC5=O)C6=O)CC4)CC3)CC2)ccc1Nc1ncc(Cl)c(Nc2ccccc2N(C)S(C)(=O)=O)n1 (stereo not drawn) [Example 128, N-(2-((5-chloro-2-((4-(4-(4-(5-(4-(2-(2,6-dioxopiperidin-3-yl)-1,3-dioxoisoindolin-5-yl)piperazin-1-yl)pentanoyl)piperazin-1-yl)piperidin-1-yl)-2-methoxyphenyl)amino)pyrimidin-4-yl)amino)phenyl)-N-methylmethanesulfonamide]
DTC Dmax (%) [1]: 99.67% | DC50 [1]: 53.7 nM | DC50 [2]: > 10000 nM | Dmax [2]: 15.3% | DC50 [3]: 3.2 nM | Dmax [3]: 84% | DC50 [4]: 11.5 nM | Dmax [4]: 85% | Dmax [5]: 86.2% | DC50 [5]: 168 nM

COc1cc(N2CCC(N3CCN(C(=O)C4CCN(CC5CCN(c6ccc7c(c6)C(=O)N(C6CCC(=O)NC6=O)C7=O)CC5)CC4)CC3)CC2)ccc1Nc1ncc(Cl)c(Nc2ccccc2P(C)(C)=O)n1 (stereo not drawn) [Example 113, 5-(4-((4-(4-(1-(4-((5-chloro-4-((2-(dimethylphosphoryl)phenyl)amino)pyrimidin-2-yl)amino)-3-methoxyphenyl)piperidin-4-yl)piperazine-1-carbonyl)piperidin-1-yl)methyl)piperidin-1-yl)-2-(2,6-dioxopiperidin-3-yl)isoindoline-1,3-dione]
DTC Dmax (%) [1]: 99.16% | DC50 [1]: 15.1 nM | DC50 [2]: > 10000 nM | Dmax [2]: 29.1% | DC50 [3]: 3.34 nM | Dmax [3]: 89.2% | DC50 [4]: 5.3 nM | Dmax [4]: 97.3% | Dmax [5]: 91% | DC50 [5]: 77.2 nM

CCc1cc(Nc2ncc(Br)c(Nc3ccc4nccnc4c3P(C)(C)=O)n2)c(OC)cc1N1CCC(N2CCN(C(=O)[C@@H]3CCN(c4ccc5c(c4)C(=O)N(C4CCC(=O)NC4=O)C5=O)C3)CC2)CC1 (stereo partly drawn) [Example 65, 5-((R)-3-(4-(1-(4-((5-bromo-4-((5-(dimethylphosphoryl)quinoxalin-6-yl)amino)pyrimidin-2-yl)amino)-2-ethyl-5-methoxyphenyl)piperidin-4-yl)piperazine-1-carbonyl)pyrrolidin-1-yl)-2-(2,6-dioxopiperidin-3-yl)isoindoline-1,3-dione]
DTC Dmax (%) [1]: 80.45% | DC50 [1]: 8.05 nM | DC50 [2]: > 10000 nM | Dmax [2]: 15.4% | DC50 [3]: 2.53 nM | Dmax [3]: 73.9% | DC50 [4]: 2.31 nM | Dmax [4]: 85.6% | Dmax [5]: 75.5% | DC50 [5]: 14.2 nM

CCc1cc(Nc2ncc(Br)c(Nc3ccc4nccnc4c3P(C)(C)=O)n2)c(OC)cc1N1CCC(N2CCN(CCCC3CN(c4ccc5c(c4)C(=O)N(C4CCC(=O)NC4=O)C5=O)C3)CC2)CC1 (stereo not drawn) [Example 56, 5-(3-(3-(4-(1-(4-((5-bromo-4-((5-(dimethylphosphoryl)quinoxalin-6-yl)amino)pyrimidin-2-yl)amino)-2-ethyl-5-methoxyphenyl)piperidin-4-yl)piperazin-1-yl)propyl)azetidin-1-yl)-2-(2,6-dioxopiperidin-3-yl)isoindoline-1,3-dione]
DTC Dmax (%) [1]: 82.17% | DC50 [1]: 9.52 nM | DC50 [2]: > 10000 nM | Dmax [2]: 16.9% | DC50 [3]: 2.63 nM | Dmax [3]: 93.4% | DC50 [4]: 6.5 nM | Dmax [4]: 88.8% | Dmax [5]: 79.5% | DC50 [5]: 31.4 nM

CCc1cc(Nc2ncc(Br)c(Nc3ccc4nccnc4c3P(C)(C)=O)n2)c(OC)cc1N1CCC(N2CCN(CCc3ccc(C4CCC(=O)NC4=O)cc3)CC2)CC1 (stereo not drawn) [Example 1, 3-(4-(2-(4-(1-(4-((5-bromo-4-((5-(dimethylphosphoryl)quinoxalin-6-yl)amino)pyrimidin-2-yl)amino)-2-ethyl-5-methoxyphenyl)piperidin-4-yl)piperazin-1-yl)ethyl)phenyl)piperidine-2,6-dione]
DC50 [2]: > 10000 nM | Dmax [2]: 49.2% | DC50 [3]: 3.6 nM | Dmax [3]: 86.9% | DC50 [4]: 7.22 nM | Dmax [4]: 60.8% | Dmax [5]: 89.3%
